Literature values in patent US8815815B2, “Methods for producing phytoextracts from vegetation waters and olive oil pomaces and compositions obtained thereby” (Phenofarm S.r.l., priority 2011, dated 2014).
In brackets after ≈: the same amount, converted by molar mass.

Columns and labels:
[1] = test system: P-388 murine leukaemia cells
neutrophils = details: in vitro
[2] = test system: PC12 neuronal cell culture; details: 1-methyl-4-phenylpyridine (MPP+) ion

Question: With `C[C@@H]1O[C@@H](O[C@@H]2[C@@H](O)[C@H](OCCc3ccc(O)c(O)c3)O[C@H](CO)[C@H]2OC(=O)/C=C/c2ccc(O)c(O)c2)[C@H](O)[C@H](O)[C@H]1O` [verbascoside] as the compound, how does the ED50 cytotoxic action [1] read?
Answer: The ED50 cytotoxic action was 26 µg/mL (≈ 41.6 µM).

Question: And the “chemotactic activity of neutrophils” value (neutrophils)?
Answer: The value was “increasing the chemotactic activity of neutrophils”.

Question: What about the “protection activity against neurotoxicity induced by MPP+” value [2] of the same compound?
Answer: The value was “protection activity against neurotoxicity”.

Question: Which ED50 cytotoxic action [1] does the source give for `C[C@@H]1O[C@@H](O[C@@H]2[C@@H](O)[C@H](OCCc3ccc(O)c(O)c3)O[C@H](COC(=O)/C=C/c3ccc(O)c(O)c3)[C@H]2O)[C@H](O)[C@H](O)[C@H]1O` [isoacteoside] here?
Answer: Its ED50 cytotoxic action is 10 µg/mL (≈ 16 µM).
